According to PubChem BioAssay AID1919009 (Molecular Pharmacology Branch, DTP, NCI, 2023):
Where “and” joins values, the source holds several entries; their conditions need not be identical. Equal values may be shown once.

Tested on: K24384-001-R-PDC complex spheroid growth
Assay: Anticancer human tumor K24384-001-R-PDC patient-derived pancreatic adenocarcinoma cell line growth inhibition [AhR]
Conditions: for viability, T/C: stronger effect = lower value
Outline: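 Complex tumor spheroids co-cultured with HUVEC and human MSC stroma; AhR antagonists tested in combination with standard-of-care and investigational agents. Top concentration at or near clinical Cmax (else 10 microM), half-log dilutions; growth expressed as percent test/control.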

[1] = curve of first compound, second compound 0.1 µM
[2] = curve of first compound, second compound 0.316 µM
[3] = curve of first compound, second compound 1 µM
[4] = curve of first compound, second compound 3.16 µM
[5] = curve of first compound, second compound 10 µM
[6] = second compound 0.1 µM, first compound 0.0316 µM
[7] = second compound 0.1 µM, first compound 0.1 µM
[8] = second compound 0.1 µM, first compound 0.316 µM
[9] = second compound 0.1 µM, first compound 1 µM
[10] = second compound 0.1 µM, first compound 3.16 µM
[11] = second compound 0.1 µM, first compound 10 µM
[12] = second compound 0.316 µM, first compound 0.0316 µM
[13] = second compound 0.316 µM, first compound 0.1 µM
[14] = second compound 0.316 µM, first compound 0.316 µM
[15] = second compound 0.316 µM, first compound 1 µM
[16] = second compound 0.316 µM, first compound 3.16 µM
[17] = second compound 0.316 µM, first compound 10 µM
[18] = second compound 1 µM, first compound 0.0316 µM
[19] = second compound 1 µM, first compound 0.1 µM
[20] = second compound 1 µM, first compound 0.316 µM
[21] = second compound 1 µM, first compound 1 µM
[22] = second compound 1 µM, first compound 3.16 µM
[23] = second compound 1 µM, first compound 10 µM
[24] = second compound 3.16 µM, first compound 0.0316 µM
[25] = second compound 3.16 µM, first compound 0.1 µM
[26] = second compound 3.16 µM, first compound 0.316 µM
[27] = second compound 3.16 µM, first compound 1 µM
[28] = second compound 3.16 µM, first compound 3.16 µM
[29] = second compound 3.16 µM, first compound 10 µM
[30] = second compound 10 µM, first compound 0.0316 µM
[31] = second compound 10 µM, first compound 0.1 µM
[32] = second compound 10 µM, first compound 0.316 µM
[33] = second compound 10 µM, first compound 1 µM
[34] = second compound 10 µM, first compound 3.16 µM
[35] = second compound 10 µM, first compound 10 µM
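For viability, T/C in this document: percent of DMSO vehicle-treated spheroid viability set as 100%.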

Nc1ccn(C2OC(CO)C(O)C2(F)F)c(=O)n1 (configuration not stated) + CC(CO)NC(=O)c1cc(-c2ccc(Cl)cc2)nn(-c2cnn(C)c2)c1=O
IC50 [1]: 570 nM | IC50 [2]: 666 nM | IC50 [3]: 767 nM | IC50 [4]: 841 nM | IC50 [5]: 1170 nM | viability, T/C [6]: 81.9% | viability, T/C [7]: 90.8% | viability, T/C [8]: 65.8% | viability, T/C [9]: 35.6% | viability, T/C [10]: 31.8% | viability, T/C [11]: 28.1% | viability, T/C [12]: 92.2% | viability, T/C [13]: 92.5% | viability, T/C [14]: 70.7% | viability, T/C [15]: 38.6% | viability, T/C [16]: 30.7% | viability, T/C [17]: 27% | viability, T/C [18]: 90.9% | viability, T/C [19]: 77.4% | viability, T/C [20]: 69.8% | viability, T/C [21]: 45.3% | viability, T/C [22]: 26.7% | viability, T/C [23]: 26.4% | viability, T/C [24]: 77.5% | viability, T/C [25]: 79.8% | viability, T/C [26]: 72.4% | viability, T/C [27]: 45.6% | viability, T/C [28]: 30.1% | viability, T/C [29]: 24.8% | viability, T/C [30]: 82.9% | viability, T/C [31]: 80.5% | viability, T/C [32]: 81.6% | viability, T/C [33]: 52.3% | viability, T/C [34]: 36% | viability, T/C [35]: 33.9%

COc1cc(C2c3cc4c(cc3C(OC3OC5COC(C)OC5C(O)C3O)C3COC(=O)C23)OCO4)cc(OC)c1O (configuration not stated) + Cc1ccccc1N=Nc1ccc(NC(=O)c2ccnn2C)c(C)c1
IC50 [1]: 955 nM | IC50 [2]: 1090 nM | IC50 [3]: 830 nM | IC50 [4]: 969 nM | IC50 [5]: 2730 nM | viability, T/C [6]: 97.7% | viability, T/C [7]: 96.3% | viability, T/C [8]: 77.9% | viability, T/C [9]: 49.6% | viability, T/C [10]: 35.2% | viability, T/C [11]: 35.6% | viability, T/C [12]: 104% | viability, T/C [13]: 92.5% | viability, T/C [14]: 66.3% | viability, T/C [15]: 55.2% | viability, T/C [16]: 36.5% | viability, T/C [17]: 38.7% | viability, T/C [18]: 102% | viability, T/C [19]: 101% | viability, T/C [20]: 83.1% | viability, T/C [21]: 43.6% | viability, T/C [22]: 33.9% | viability, T/C [23]: 31.7% | viability, T/C [24]: 78.3% | viability, T/C [25]: 89.1% | viability, T/C [26]: 64.4% | viability, T/C [27]: 51.6% | viability, T/C [28]: 39.7% | viability, T/C [29]: 35.5% | viability, T/C [30]: 102% | viability, T/C [31]: 98.5% | viability, T/C [32]: 88.6% | viability, T/C [33]: 63.9% | viability, T/C [34]: 46.2% | viability, T/C [35]: 46.4%

CC(C)c1c(-c2ccccc2)nc2c(C#N)c[nH]n2c1=O + CC(CO)NC(=O)c1cc(-c2ccc(Cl)cc2)nn(-c2cnn(C)c2)c1=O
IC50 [1]: > 10000 nM | IC50 [2]: > 10000 nM | IC50 [3]: > 10000 nM | IC50 [4]: > 10000 nM | IC50 [5]: > 10000 nM | viability, T/C [6]: 118% | viability, T/C [7]: 122% | viability, T/C [8]: 76.2% | viability, T/C [9]: 99.7% | viability, T/C [10]: 92.2% | viability, T/C [11]: 80.8% | viability, T/C [12]: 116% | viability, T/C [13]: 107% | viability, T/C [14]: 89.4% | viability, T/C [15]: 96.8% | viability, T/C [16]: 73% | viability, T/C [17]: 78.3% | viability, T/C [18]: 92.7% | viability, T/C [19]: 80% | viability, T/C [20]: 94.2% | viability, T/C [21]: 64.7% | viability, T/C [22]: 72.1% | viability, T/C [23]: 72.8% | viability, T/C [24]: 63.2% | viability, T/C [25]: 75.1% | viability, T/C [26]: 79.8% | viability, T/C [27]: 64% | viability, T/C [28]: 68.7% | viability, T/C [29]: 63.5% | viability, T/C [30]: 77.5% | viability, T/C [31]: 74.4% | viability, T/C [32]: 62.5% | viability, T/C [33]: 60.6% | viability, T/C [34]: 52.3% | viability, T/C [35]: 61.6%

Nc1ncn(C2CC(O)C(CO)O2)c(=O)n1 (configuration not stated) + CC(CO)NC(=O)c1cc(-c2ccc(Cl)cc2)nn(-c2cnn(C)c2)c1=O
IC50 [1]: > 1000 nM | IC50 [2]: > 1000 nM | IC50 [3]: > 1000 nM | IC50 [4]: > 1000 nM | IC50 [5]: > 1000 nM | viability, T/C (second compound 0.1 µM, first compound 0.00316 µM): 110% | viability, T/C (second compound 0.1 µM, first compound 0.01 µM): 116% | viability, T/C [6]: 109% | viability, T/C [7]: 65.8% | viability, T/C [8]: 87.7% | viability, T/C [9]: 67.5% | viability, T/C (second compound 0.316 µM, first compound 0.00316 µM): 105% | viability, T/C (second compound 0.316 µM, first compound 0.01 µM): 111% | viability, T/C [12]: 109% | viability, T/C [13]: 76.2% | viability, T/C [14]: 69.9% | viability, T/C [15]: 63.8% | viability, T/C (second compound 1 µM, first compound 0.00316 µM): 98.2% | viability, T/C (second compound 1 µM, first compound 0.01 µM): 93.4% | viability, T/C [18]: 112% | viability, T/C [19]: 95.8% | viability, T/C [20]: 75.4% | viability, T/C [21]: 62.8% | viability, T/C (second compound 3.16 µM, first compound 0.00316 µM): 74.3% | viability, T/C (second compound 3.16 µM, first compound 0.01 µM): 102% | viability, T/C [24]: 81.3% | viability, T/C [25]: 67.9% | viability, T/C [26]: 59.2% | viability, T/C [27]: 57.3% | viability, T/C (second compound 10 µM, first compound 0.00316 µM): 80.4% | viability, T/C (second compound 10 µM, first compound 0.01 µM): 83.1% | viability, T/C [30]: 79.3% | viability, T/C [31]: 67.1% | viability, T/C [32]: 58.2% | viability, T/C [33]: 63.2%

Nc1ccccc1NC(=O)c1ccc(CNC(=O)OCc2cccnc2)cc1
viability, T/C (compound 0.0316 µM): 94% and 112% and 106% | viability, T/C (compound 0.1 µM): 98% and 108% and 107% | viability, T/C (compound 0.316 µM): 85% and 93.4% and 96.5% | viability, T/C (compound 1 µM): 78.2% and 67.5% and 60.9% | viability, T/C (compound 3.16 µM): 43.8% and 43.9% and 45.6% | viability, T/C (compound 10 µM): 8.72% and 6.99% and 9.95% | IC50 (curve of compound): 2590 nM and 2280 nM and 2140 nM
